Data as given in ChEMBL document CHEMBL3885881, “DrugMatrix”.

Species: Rattus norvegicus
Assay: DrugMatrix - Regimen: Daily Repeat
Assay type: toxicity, organism-based, Sprague-Dawley
Parameters: regimen Daily Repeat, gender Male, age 6-8 weeks
Settings: in vivo, po, route oral GAVAGE, vehicle 100 % WATER; for ABSOLUTE BASOPHIL / ABSOLUTE EOSINOPHIL / ABSOLUTE LYMPHOCYTE / ABSOLUTE MONOCYTE / ABSOLUTE SEGMENTED NEUTROPHIL / BASOPHIL / EOSINOPHIL / ERYTHROCYTE COUNT / HEMATOCRIT / HEMOGLOBIN / LEUKOCYTE COUNT / LYMPHOCYTE / MEAN CORPUSCULAR HEMOGLOBIN / MEAN CORPUSCULAR HEMOGLOBIN CONCENTRATION / MEAN CORPUSCULAR VOLUME / MONOCYTE / NEUTROPHIL / NUCLEATED RED BLOOD CELLS / PLATELET COUNT: tissue Blood; for ALANINE AMINOTRANSFERASE / ALBUMIN / ALKALINE PHOSPHATASE / ASPARTATE AMINOTRANSFERASE / BLOOD UREA NITROGEN / CARBON DIOXIDE / CHLORIDE / CHOLESTEROL / CREATINE PHOSPHOKINASE / CREATININE / GLUCOSE / LACTATE DEHYDROGENASE / LIPASE / PHOSPHORUS / POTASSIUM / SODIUM / TOTAL BILIRUBIN / TOTAL PROTEIN / URIC ACID: tissue Plasma
[1] = 0 mg/kg, 72 h, dose level Control, time 3 day
[2] = 0 mg/kg, 120 h, dose level Control, time 5 day
[3] = 200 mg/kg, 72 h, dose level Low, time 3 day

Compound: O=C(O)c1cccnc1 [NIACIN]
- ABSOLUTE BASOPHIL [1]: 0 CELLS/uL
- ABSOLUTE EOSINOPHIL [1]: 0 CELLS/uL
- ABSOLUTE LYMPHOCYTE [1]: 10386.33 CELLS/uL
- ABSOLUTE MONOCYTE [1]: 88.5 CELLS/uL
- ABSOLUTE SEGMENTED NEUTROPHIL [1]: 1008.5 CELLS/uL
- BASOPHIL [1]: 0%
- EOSINOPHIL [1]: 0%
- ERYTHROCYTE COUNT [1]: 5.16 x10E6/uL
- HEMATOCRIT [1]: 32.43%
- HEMOGLOBIN [1]: 12.98 G/DL
- LEUKOCYTE COUNT [1]: 11.48 x10E3/uL
- LYMPHOCYTE [1]: 92.33%
- MEAN CORPUSCULAR HEMOGLOBIN [1]: 25.23 pg
- MEAN CORPUSCULAR HEMOGLOBIN CONCENTRATION [1]: 40.08 G/DL
- MEAN CORPUSCULAR VOLUME [1]: 62.95 fL
- MONOCYTE [1]: 0.67%
- NEUTROPHIL [1]: 7%
- NUCLEATED RED BLOOD CELLS [1]: 0 /100WBC
- PLATELET COUNT [1]: 1016.67 x10E3/uL
- ALANINE AMINOTRANSFERASE [1]: 62.17 u/L
- ALBUMIN [1]: 3.95 G/DL
- ALKALINE PHOSPHATASE [1]: 363.5 u/L
- ASPARTATE AMINOTRANSFERASE [1]: 118 u/L
- BLOOD UREA NITROGEN [1]: 14.5 mg/dL
- CARBON DIOXIDE [1]: 22.83 mmol/L
- CHLORIDE [1]: 100.67 MEQ/L
- CHOLESTEROL [1]: 66 mg/dL
- CREATINE PHOSPHOKINASE [1]: 1308.83 u/L
- CREATININE [1]: 0.22 mg/dL
- GLUCOSE [1]: 187.5 mg/dL
- LACTATE DEHYDROGENASE [1]: 380.17 u/L
- LIPASE [1]: 16.17 u/L
- PHOSPHORUS [1]: 14.27 mg/dL
- POTASSIUM [1]: 6.8 MEQ/L
- SODIUM [1]: 142.53 MEQ/L
- TOTAL BILIRUBIN [1]: 0.2 mg/dL
- TOTAL PROTEIN [1]: 5.68 G/DL
- URIC ACID [1]: 2.87 mg/dL
- ABSOLUTE BASOPHIL [2]: 0 CELLS/uL
- ABSOLUTE EOSINOPHIL [2]: 80 CELLS/uL
- ABSOLUTE LYMPHOCYTE [2]: 13301.33 CELLS/uL
- ABSOLUTE MONOCYTE [2]: 180.83 CELLS/uL
- ABSOLUTE SEGMENTED NEUTROPHIL [2]: 1187.83 CELLS/uL
- BASOPHIL [2]: 0%
- EOSINOPHIL [2]: 0.5%
- ERYTHROCYTE COUNT [2]: 5.54 x10E6/uL
- HEMATOCRIT [2]: 35.65%
- HEMOGLOBIN [2]: 14.22 G/DL
- LEUKOCYTE COUNT [2]: 14.75 x10E3/uL
- LYMPHOCYTE [2]: 90.67%
- MEAN CORPUSCULAR HEMOGLOBIN [2]: 25.65 pg
- MEAN CORPUSCULAR HEMOGLOBIN CONCENTRATION [2]: 39.88 G/DL
- MEAN CORPUSCULAR VOLUME [2]: 64.35 fL
- MONOCYTE [2]: 1%
- NEUTROPHIL [2]: 7.83%
- NUCLEATED RED BLOOD CELLS [2]: 0.17 /100WBC
- PLATELET COUNT [2]: 1285.33 x10E3/uL
- ALANINE AMINOTRANSFERASE [2]: 51.67 u/L
- ALBUMIN [2]: 4.08 G/DL
- ALKALINE PHOSPHATASE [2]: 391.5 u/L
- ASPARTATE AMINOTRANSFERASE [2]: 99.5 u/L
- BLOOD UREA NITROGEN [2]: 15.5 mg/dL
- CARBON DIOXIDE [2]: 28.33 mmol/L
- CHLORIDE [2]: 101.83 MEQ/L
- CHOLESTEROL [2]: 67.83 mg/dL
- CREATINE PHOSPHOKINASE [2]: 771.33 u/L
- CREATININE [2]: 0.23 mg/dL
- GLUCOSE [2]: 156.5 mg/dL
- LACTATE DEHYDROGENASE [2]: 544.33 u/L
- LIPASE [2]: 10.17 u/L
- PHOSPHORUS [2]: 12.03 mg/dL
- POTASSIUM [2]: 6.81 MEQ/L
- SODIUM [2]: 144.13 MEQ/L
- TOTAL BILIRUBIN [2]: 0.22 mg/dL
- TOTAL PROTEIN [2]: 6 G/DL
- URIC ACID [2]: 2.18 mg/dL
- ABSOLUTE BASOPHIL [3]: 0 CELLS/uL
- ABSOLUTE EOSINOPHIL [3]: 118.67 CELLS/uL
- ABSOLUTE LYMPHOCYTE [3]: 13131.33 CELLS/uL
- ABSOLUTE MONOCYTE [3]: 410.33 CELLS/uL
- ABSOLUTE SEGMENTED NEUTROPHIL [3]: 1606.33 CELLS/uL
- BASOPHIL [3]: 0%
- EOSINOPHIL [3]: 0.67%
- ERYTHROCYTE COUNT [3]: 5.09 x10E6/uL
- HEMATOCRIT [3]: 32.87%
- HEMOGLOBIN [3]: 13.13 G/DL
- LEUKOCYTE COUNT [3]: 15.27 x10E3/uL
- LYMPHOCYTE [3]: 86%
- MEAN CORPUSCULAR HEMOGLOBIN [3]: 25.8 pg
- MEAN CORPUSCULAR HEMOGLOBIN CONCENTRATION [3]: 39.97 G/DL
- MEAN CORPUSCULAR VOLUME [3]: 64.6 fL
- MONOCYTE [3]: 2.67%
- NEUTROPHIL [3]: 10.67%
- NUCLEATED RED BLOOD CELLS [3]: 0 /100WBC
- PLATELET COUNT [3]: 1167 x10E3/uL
- ALANINE AMINOTRANSFERASE [3]: 51 u/L
- ALBUMIN [3]: 4 G/DL
- ALKALINE PHOSPHATASE [3]: 346.33 u/L
- ASPARTATE AMINOTRANSFERASE [3]: 113.33 u/L
- BLOOD UREA NITROGEN [3]: 12 mg/dL
- CARBON DIOXIDE [3]: 23.33 mmol/L
- CHLORIDE [3]: 103.33 MEQ/L
- CHOLESTEROL [3]: 74.67 mg/dL
- CREATINE PHOSPHOKINASE [3]: 1459.33 u/L
- CREATININE [3]: 0.2 mg/dL
- GLUCOSE [3]: 170 mg/dL
- LACTATE DEHYDROGENASE [3]: 168.33 u/L
- LIPASE [3]: 11 u/L
- PHOSPHORUS [3]: 12.67 mg/dL
- POTASSIUM [3]: 5.75 MEQ/L
- SODIUM [3]: 144.4 MEQ/L
- TOTAL BILIRUBIN [3]: 0.2 mg/dL
- TOTAL PROTEIN [3]: 5.8 G/DL
- URIC ACID [3]: 1.1 mg/dL
